Source: patent US12077503B2, “Substituted cyclic amides and their use as herbicides” (FMC CORPORATION, priority 2015, dated 2024)

Experiments:
Experiment in all cases: Test C preemergence
Assay type in all cases: in vivo
[1] = system: waterhemp (common waterhemp, Amaranthus rudis); conditions: for Plant response rating, Waterhemp: scale 0 to 100, 0 no effect, 100 complete control
Method in brief: (§1)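 Visual rating, 0–100 scale (0 = no effect, 100 = complete control) versus controls, 13–15 d after treatment. Compounds in non-phytotoxic solvent plus surfactant; applied preemergence to seeds in loam/sand soil or postemergence to 1- to 4-leaf plants (2–18 cm) in peat/vermiculite medium; greenhouse-held.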

[2] = system: nutsedge, yellow (yellow nutsedge, Cyperus esculentus); conditions: for Plant response rating, Nutsedge, Yellow: scale 0 to 100, 0 no effect, 100 complete control
Method in brief: as §1

[3] = system: pigweed (Amaranthus retroflexus); conditions: for Plant response rating, Pigweed: scale 0 to 100, 0 no effect, 100 complete control
Method in brief: as §1

[4] = system: corn (Zea mays); conditions: for Plant response rating, Corn: scale 0 to 100, 0 no effect, 100 complete control
Method in brief: as §1

[5] = system: oilseed rape (Brassica napus); conditions: for Plant response rating, Oilseed Rape: scale 0 to 100, 0 no effect, 100 complete control
Method in brief: as §1

[6] = system: barnyardgrass (Echinochloa crus-galli); conditions: for Plant response rating, Barnyardgrass: scale 0 to 100, 0 no effect, 100 complete control
Method in brief: as §1

[7] = system: crabgrass, large (large crabgrass, Digitaria sanguinalis); conditions: for Plant response rating, Crabgrass, Large: scale 0 to 100, 0 no effect, 100 complete control
Method in brief: as §1

[8] = system: velvetleaf (Abutilon theophrasti); conditions: for Plant response rating, Velvetleaf: scale 0 to 100, 0 no effect, 100 complete control
Method in brief: as §1

[9] = system: Galium (catchweed bedstraw, Galium aparine); conditions: for Plant response rating, Galium: scale 0 to 100, 0 no effect, 100 complete control
Method in brief: as §1

[10] = system: ryegrass, Italian (Italian ryegrass, Lolium multiflorum); conditions: for Plant response rating, Ryegrass, Italian: scale 0 to 100, 0 no effect, 100 complete control
Method in brief: as §1

[11] = system: soybean (Glycine max); conditions: for Plant response rating, Soybean: scale 0 to 100, 0 no effect, 100 complete control
Method in brief: as §1

[12] = system: lambsquarters (Chenopodium album); conditions: for Plant response rating, Lambsquarters: scale 0 to 100, 0 no effect, 100 complete control
Method in brief: as §1

[13] = system: ragweed (common ragweed, Ambrosia elatior); conditions: for Plant response rating, Ragweed: scale 0 to 100, 0 no effect, 100 complete control
Method in brief: as §1

[14] = system: wheat (winter wheat, Triticum aestivum); conditions: for Plant response rating, Wheat: scale 0 to 100, 0 no effect, 100 complete control
Method in brief: as §1

[15] = system: morningglory (Ipomoea coccinea); conditions: for Plant response rating, Morningglory: scale 0 to 100, 0 no effect, 100 complete control
Method in brief: as §1

[16] = system: johnsongrass (Sorghum halepense); conditions: for Plant response rating, Johnsongrass: scale 0 to 100, 0 no effect, 100 complete control
Method in brief: as §1

[17] = system: foxtail, giant (giant foxtail, Setaria faberii); conditions: for Plant response rating, Foxtail, Giant: scale 0 to 100, 0 no effect, 100 complete control
Method in brief: as §1

[18] = 31 g ai/ha, 0 is no effect, 100 is complete control

CN1CC(c2cccc(C(F)(F)F)c2)C(C(=O)Nc2cccc(F)c2F)C1=O (centres unmarked) [Compound 636]
Plant response rating (scale of 0 to 100), Waterhemp [1, 18]: 65
Plant response rating, Waterhemp ([1]; 62 g ai/ha): 75
Plant response rating, Waterhemp ([1]; 125 g ai/ha): 85
Plant response rating, Waterhemp ([1]; 250 g ai/ha): 85
Plant response rating (scale of 0 to 100), Nutsedge, Yellow [2, 18]: 0
Plant response rating, Nutsedge, Yellow ([2]; 62 g ai/ha): 75
Plant response rating, Nutsedge, Yellow ([2]; 125 g ai/ha): 0
Plant response rating, Nutsedge, Yellow ([2]; 250 g ai/ha): 60
Plant response rating (scale of 0 to 100), Pigweed [3, 18]: 60
Plant response rating, Pigweed ([3]; 62 g ai/ha): 70
Plant response rating, Pigweed ([3]; 125 g ai/ha): 80
Plant response rating, Pigweed ([3]; 250 g ai/ha): 85
Plant response rating (scale of 0 to 100), Corn [4, 18]: 60
Plant response rating, Corn ([4]; 62 g ai/ha): 80
Plant response rating, Corn ([4]; 125 g ai/ha): 85
Plant response rating, Corn ([4]; 250 g ai/ha): 90
Plant response rating (scale of 0 to 100), Oilseed Rape [5, 18]: 80
Plant response rating, Oilseed Rape ([5]; 62 g ai/ha): 60
Plant response rating, Oilseed Rape ([5]; 125 g ai/ha): 85
Plant response rating, Oilseed Rape ([5]; 250 g ai/ha): 90
Plant response rating (scale of 0 to 100), Barnyardgrass [6, 18]: 90
Plant response rating, Barnyardgrass ([6]; 62 g ai/ha): 90
Plant response rating, Barnyardgrass ([6]; 125 g ai/ha): 95
Plant response rating, Barnyardgrass ([6]; 250 g ai/ha): 95
Plant response rating (scale of 0 to 100), Crabgrass, Large [7, 18]: 95
Plant response rating, Crabgrass, Large ([7]; 62 g ai/ha): 98
Plant response rating, Crabgrass, Large ([7]; 125 g ai/ha): 100
Plant response rating, Crabgrass, Large ([7]; 250 g ai/ha): 100
Plant response rating (scale of 0 to 100), Velvetleaf [8, 18]: 5
Plant response rating, Velvetleaf ([8]; 62 g ai/ha): 50
Plant response rating, Velvetleaf ([8]; 125 g ai/ha): 55
Plant response rating, Velvetleaf ([8]; 250 g ai/ha): 55
Plant response rating (scale of 0 to 100), Galium [9, 18]: 85
Plant response rating, Galium ([9]; 62 g ai/ha): 85
Plant response rating, Galium ([9]; 125 g ai/ha): 90
Plant response rating, Galium ([9]; 250 g ai/ha): 90
Plant response rating (scale of 0 to 100), Ryegrass, Italian [10, 18]: 70
Plant response rating, Ryegrass, Italian ([10]; 62 g ai/ha): 30
Plant response rating, Ryegrass, Italian ([10]; 125 g ai/ha): 50
Plant response rating, Ryegrass, Italian ([10]; 250 g ai/ha): 90
Plant response rating (scale of 0 to 100), Soybean [11, 18]: 0
Plant response rating, Soybean ([11]; 62 g ai/ha): 75
Plant response rating, Soybean ([11]; 125 g ai/ha): 0
Plant response rating, Soybean ([11]; 250 g ai/ha): 0
Plant response rating (scale of 0 to 100), Lambsquarters [12, 18]: 40
Plant response rating, Lambsquarters ([12]; 62 g ai/ha): 40
Plant response rating, Lambsquarters ([12]; 125 g ai/ha): 55
Plant response rating, Lambsquarters ([12]; 250 g ai/ha): 65
Plant response rating (scale of 0 to 100), Ragweed [13, 18]: 20
Plant response rating, Ragweed ([13]; 62 g ai/ha): 65
Plant response rating, Ragweed ([13]; 125 g ai/ha): 65
Plant response rating, Ragweed ([13]; 250 g ai/ha): 80
Plant response rating (scale of 0 to 100), Wheat [14, 18]: 35
Plant response rating, Wheat ([14]; 62 g ai/ha): 45
Plant response rating, Wheat ([14]; 125 g ai/ha): 65
Plant response rating, Wheat ([14]; 250 g ai/ha): 75
Plant response rating (scale of 0 to 100), Morningglory [15, 18]: 5
Plant response rating, Morningglory ([15]; 62 g ai/ha): 25
Plant response rating, Morningglory ([15]; 125 g ai/ha): 35
Plant response rating, Morningglory ([15]; 250 g ai/ha): 65
Plant response rating (scale of 0 to 100), Johnsongrass [16, 18]: 80
Plant response rating, Johnsongrass ([16]; 62 g ai/ha): 85
Plant response rating, Johnsongrass ([16]; 125 g ai/ha): 85
Plant response rating, Johnsongrass ([16]; 250 g ai/ha): 90
Plant response rating (scale of 0 to 100), Foxtail, Giant [17, 18]: 85
Plant response rating, Foxtail, Giant ([17]; 62 g ai/ha): 90
Plant response rating, Foxtail, Giant ([17]; 125 g ai/ha): 90
Plant response rating, Foxtail, Giant ([17]; 250 g ai/ha): 90
